Assay results taken from patent US20220362386A1, “LIQUID COMPOSITIONS COMPRISING A LEVODOPA AMINO ACID CONJUGATE AND USES THEREOF” (NeuroDerm, Ltd., priority 2019, published 2022).
Where a name gives a salt, the structure may show the parent alone. Read-outs that look alike come from different tables or passages of the source. Values belong to the compound of their own block, whether it stands above or below them. Non-standard residues stand in square brackets, D forms with d. Residues, ends and D or L forms follow the SMILES beside them. Dopa = N[C@@H](Cc1ccc(O)c(O)c1)C(=O)O

What was measured:
physchem = assay type: physicochemical
Protocol: The volume of the solution in the bottle was adjusted to 5 ml, either by adding solvent, or be removing any residual solution, after which the bottle was tightly closed and left at 25° C. for stability observation. It is noted that throughout Example 4, the concentrations in the tables below were calculated taking into account the amount of solvent added or the solution removed, in which event, the calculations were performed regarding the 5 ml+(amount removed) as the volume of the solution. It is further noted that throughout this document, unless mentioned otherwise, the stability was measured using the manual visual inspection Bosch apparatus MIH DX, at a magnification of ×1.75.
(§1) The LD-Tyr free base, prepared according to Example 2, was added to a solvent, as detailed in Table 7 below, and neutralized by addition of NaOH. When maximum solubility was observed, the solution was filtered and then transferred to a bottle that was previously weighed and flushed with nitrogen. The volume of the solution in the bottle was adjusted to 5 ml, after which the bottle was tightly closed and left at 25° C. for stability observation.
(§2) When maximum solubility was observed, the solution was filtered and then transferred to a bottle that was previously weighed and flushed with nitrogen. The volume of the solution in the bottle was adjusted to 5 ml, after which the bottle was tightly closed and left at 25° C. for stability observation.
as §2, with “stored” for “left”
as §2, with “stored” for “left”
as §1, with “LD-Lys TFA salt,” for “The LD-Tyr free base,”, “1, and which comprises two equivalents of TFA,” for “2,”, “11” for “7”, “stored” for “left”
as §2, with “As detailed above regarding other solutions, with the LD-Tyr free base when” for “When”
as §1, with “LD-Lys HCl salt,” for “The LD-Tyr free base,”, “3,” for “2,”, “13” for “7”, “by the” for “by”

[1] = In-vitro metabolism of LDAA compounds using liver microsomes; assay type: in vitro ADME, human; settings: for half-life at 0.1 μM: pH 7.4, 1.0E−07M, 0.1 mg/mL microsomal protein
Protocol: The stability of test compounds in pooled human liver microsomes was determined on 96-well plates, wherein the test compounds were quantified at five time points by HPLC-MS/MS analysis. The assay matrix included mixed gender and a pool of 50 human liver microsomes, wherein the final microsomal protein concentration was 0.1 mg/mL. The test concentration was 0.1 μM with 0.01% DMSO, 0.25% acetonitrile and 0.25% methanol.
Each test compound was pre-incubated for five minutes with pooled liver microsomes in phosphate buffer (pH 7.4) in a 37° C. shaking water-bath. The reaction was initiated by adding a nicotinamide adenine dinucleotide phosphate (NADPH)-generating system and incubating for 0, 15, 30, 45, and 60 min. The reaction was stopped by transferring the incubation mixture to acetonitrile/methanol. Samples were then mixed and centrifuged, wherein the supernatants were used for HPLC-MS/MS analysis.
In each assay the four reference compounds propranolol, imipramine, verapamil and terfenadine were tested, wherein the propranolol and the imipramine are known to be relatively stable, while the verapamil and the terfenadine are known to be readily metabolized in human liver microsomes.
All samples were analyzed by HPLC-MS/MS using selected reaction monitoring. The HPLC system consisted of a binary LC pump with autosampler, a C-18 column, and a gradient. The conditions were adjusted when necessary.
Peak areas corresponding to the test compound were recorded. The amount of each compound remaining was calculated by comparing the peak area at each time point to time zero. The half-life is calculated from the slope of the initial linear range of the logarithmic curve of compound remaining (%) vs. time, assuming first order kinetics. In addition, the intrinsic clearance (Clint) was calculated from the half-life using the following equation:
Clint(μL/min/mg protein)=0.693/(t1/2×protein concentration)
The results of the in-vitro human liver microsome metabolism tests of various LDAA compounds (10^−7M), in their TFA salt forms, are provided in FIG. 1 and in Table 17, which presents the % of the compound remaining at times 0, 15, 30, 45 and 60 minutes, two half-life measurements and the Clint, calculated as detailed above.

[2] = In-vitro absorption, Caco-2 A-B permeability; assay type: in vitro ADME, human; settings: human, Caco-2, pH 7.4, Caco-2 A-B, without verapamil; for Papp A→B at 60 min, 10 μM: 1.0E−05M
Protocol: (§3) Conditions may be adjusted when necessary.
(§4) D denotes donor and R is receiver. […] V is the volume of the donor or receiver.
(§5) The test was performed with and without verapamil, which is a permeation inhibitor, and the results are presented in Tables 22 (without verapamil) and 34 (with verapamil).

P-gp = assay: In-vitro absorption, Caco-2 A-B permeability; assay type: in vitro ADME, human; settings: human, Caco-2, pH 7.4, with verapamil 100 μM on both the A and B sides, Caco-2 A-B, in the presence of verapamil
Protocol: as §3, §4, §5

in vitro = settings: human
Protocol: Caco-2 cells are human intestinal epithelial cells derived from a colorectal adenocarcinoma.
The assays are performed in both the apical to basolateral (A-B) and the B-A direction. The test compound is prepared at 10 μM in HBSS-HEPES (pH 7.4) with a final DMSO concentration of 1%. The working solution is centrifuged, and the supernatant is added to the donor side. The assay plate is incubated at 37° C. with gentle shaking for 60 min or 40 min for the A-B or B-A assay, respectively. For Pgp substrate assessment, the assays are run with and without 100 μM verapamil on both the A and B sides. For BCRP substrate assessment, the assays are run with and without 10 μM Ko143 on both the A and B sides. For MRP2 substrate assessment, the assays are run with and without 100 μM MK571 on both the A and B sides. Samples are aliquoted from the donor side at time zero and the end point, and from the receiver side at the end point.
Propranolol (highly permeable), labetalol (moderately permeable), ranitidine (poorly permeable), and colchicine (P-glycoprotein substrate), estrone-3-sulfate (BCRP substrate), or CDCF (MRP2 substrate) are included in each assay.
Samples are analyzed by HPLC-MS/MS using selected reaction monitoring. The HPLC system consists of a binary LC pump with an autosampler, a C-18 column, and a gradient. Conditions may be adjusted when necessary.
Fluorescein permeability is assessed in the A-B direction at pH 7.4 on both sides after the permeability assay with the test compound. The cell monolayer with a fluorescein permeability of less than 1.5×10−6 cm/s is considered intact.
The apparent permeability coefficient (Papp) of the test compound and its recovery are calculated as follows: […]
A is the surface area of the cell monolayer (0.11 cm^2). C is concentration of the test compound, expressed as peak area. D denotes donor and R is receiver. 0, mid, and end denote time zero, mid-point, and end of the incubation. Δt is the incubation time. V is the volume of the donor or receiver.
The permeability capabilities of the several LDAA compounds, in their TFA salt form, were determined using the Caco-2 B-A method.

[3] = solvent 0.63% CD solution, pH 7.71
[4] = incubation time 0 minutes, 1.0E−07M
[5] = incubation time 15 minutes, 1.0E−07M
[6] = incubation time 30 minutes, 1.0E−07M
[7] = incubation time 45 minutes, 1.0E−07M
[8] = incubation time 60 minutes, 1.0E−07M
[9] = read-out: Percent Recovery Mean
[10] = solvent 0.75% CD solution, pH 8.65

SMILES: N=C(N)NCCC[C@H](NC(=O)[C@@H](N)Cc1ccc(O)c(O)c1)C(=O)O [LD-Arg HCl salt]
Appearance (physchem; 0.2% NaBis in WFI, pH 7.02, 550 mg/ml salt): clear | Appearance (physchem; 0.63% CD solution, pH 7.71, 520 mg/ml salt): clear | solubility thermodynamic (physchem; 25 °C, aqueous buffer, thermodynamic from solid, solvent 0.2% NaBis in WFI, pH 7.02): 550 mg/mL | Appearance (physchem; WFI, pH 7.3, 500 mg/ml salt): clear | LD-Arg free base Concentration (physchem; solvent 0.2% NaBis in WFI, pH 7.02): 440 mg/mL | LD-Arg HCl salt concentration (physchem; [3]): 520 mg/mL | LD-Arg free base Concentration (physchem; [3]): 420 mg/mL | LD-Arg HCl salt concentration (physchem; solvent WFI, pH 7.3): 500 mg/mL | LD-Arg free base Concentration (physchem; solvent WFI, pH 7.3): 390 mg/mL

half-life at 0.1 μM ([1]; both sexes, human, pooled human liver microsomes, read-out: Half-Life (minute) 1st): 54.5 min | half-life at 0.1 μM ([1]; both sexes, human, pooled human liver microsomes, read-out: Half-Life (minute) 2nd): 54.1 min | half-life at 0.1 μM ([1]; both sexes, human, pooled human liver microsomes, read-out: Half-Life (minute) Mean): 54 min | microsomal CLint at 0.1 μM ([1]; both sexes, human, pooled human liver microsomes, pH 7.4, calculated from the half-life, 1.0E−07M): 128 µL/min/mg | % Compound Remaining 1st [1, 4]: 100% | % Compound Remaining 2nd [1, 4]: 100% | % Compound Remaining Mean [1, 4]: 100% | % Compound Remaining 1st [1, 5]: 103.7% | % Compound Remaining 2nd [1, 5]: 108.1% | % Compound Remaining Mean [1, 5]: 106% | % Compound Remaining 1st [1, 6]: 86.7% | % Compound Remaining 2nd [1, 6]: 77.9% | % Compound Remaining Mean [1, 6]: 82% | % Compound Remaining 1st [1, 7]: 57.5% | % Compound Remaining 2nd [1, 7]: 56.4% | % Compound Remaining Mean [1, 7]: 57% | % Compound Remaining 1st [1, 8]: 51.7% | % Compound Remaining 2nd [1, 8]: 52.9% | % Compound Remaining Mean [1, 8]: 52% | Papp A→B at 60 min, 10 μM ([2]; read-out: Permeability 1st): 0.03 ×10⁻⁶ cm/s | Papp A→B at 60 min, 10 μM ([2]; read-out: Permeability 2nd): 0.02 ×10⁻⁶ cm/s | recovery at 60 min, 10 μM ([2]; read-out: Percent Recovery 1st): 65% | recovery at 60 min, 10 μM ([2]; read-out: Percent Recovery 2nd): 62% | recovery at 60 min, 10 μM [2, 9]: 64% | recovery at 60 min, 10 μM (P-gp; read-out: Percent Recovery 1st): 60% | recovery at 60 min, 10 μM (P-gp; read-out: Percent Recovery 2nd): 59% | recovery at 60 min, 10 μM (P-gp; [9]): 59% | recovery at 40 min, 10 μM (in vitro; Caco-2, pH 7.4, Percent Recovery 1st): 93% | recovery at 40 min, 10 μM (in vitro; Caco-2, pH 7.4, Percent Recovery 2nd): 78% | recovery at 40 min, 10 μM (in vitro; Caco-2, pH 7.4, Percent Recovery Mean): 85% | Papp B→A at 40 min, 10 μM (in vitro; Caco-2, pH 7.4, Permeability 1st): 0.38 ×10⁻⁶ cm/s | Papp B→A at 40 min, 10 μM (in vitro; Caco-2, pH 7.4, Permeability 2nd): 0.33 ×10⁻⁶ cm/s | Papp B→A at 40 min, 10 μM (in vitro; Caco-2, pH 7.4, Permeability Mean): 0.4 ×10⁻⁶ cm/s
SMILES: N[C@@H](Cc1ccc(O)c(O)c1)C(=O)NCC(=O)O [LD-Gly TFA salt, Levodopa Glycine TFA Salt]

SMILES: N[C@@H](Cc1ccc(O)c(O)c1)C(=O)N[C@@H](Cc1ccc(O)cc1)C(=O)O [LD-Tyr HCl salt] (H-[Dopa]-Tyr-OH)
Appearance (physchem; 0.75% CD solution, pH 8.65, 297 mg/ml salt): clear | Appearance (physchem; WFI, pH 8.46, 300 mg/ml salt): clear | LD-Tyr HCl salt concentration (physchem; [10]): 297 mg/mL | LD-Tyr free base Concentration (physchem; [10]): 257 mg/mL | LD-Tyr HCl salt concentration (physchem; solvent WFI, pH 8.46): 300 mg/mL | LD-Tyr free base Concentration (physchem; solvent WFI, pH 8.46): 260 mg/mL
